Measured values: patent publication US20060069132A1, “Azolecarboxamide herbicides” (priority 2004, published 2006)

Assays:
barnyardgrass [1] = assay: Test B pre-/postemergence herbicide test; format: in vivo, Echinochloa crus-galli
How it was run: (§1)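 Flooded paddy rice and barnyardgrass were treated at the 2-leaf stage; upland plantings received compound either on sown seed or on 1- to 4-leaf seedlings. All were kept 13–15 days in a greenhouse and scored visually, 0–100, relative to untreated plants.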

Surinam grass = assay: Test B pre-/postemergence herbicide test; format: in vivo, Urochloa decumbens; settings: for Surinam Grass plant response rating: postemergence
How it was run: (§2)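 Evaluation is visual, comparing treated with control plants on a scale where 0 means no effect and 100 means full control. Treatments were preemergence, or postemergence on seedlings 2–18 cm tall, and held 13–15 days in the greenhouse.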

cocklebur = assay: Test B pre-/postemergence herbicide test; format: in vivo, Xanthium strumarium
How it was run: as §1

corn = assay: Test B pre-/postemergence herbicide test; format: in vivo, Zea mays
How it was run: as §2

large crabgrass = assay: Test B pre-/postemergence herbicide test; format: in vivo, Digitaria sanguinalis
How it was run: as §2

giant foxtail = assay: Test B pre-/postemergence herbicide test; format: in vivo, Setaria faberi
How it was run: as §2

lambsquarters = assay: Test B pre-/postemergence herbicide test; format: in vivo, Chenopodium album; settings: for Lambsquarters plant response rating: postemergence
How it was run: as §2

morningglory = assay: Test B pre-/postemergence herbicide test; format: in vivo, Ipomoea coccinea; settings: for Morningglory plant response rating: postemergence
How it was run: as §1

pigweed = assay: Test B pre-/postemergence herbicide test; format: in vivo, Amaranthus retroflexus; settings: for Pigweed plant response rating: postemergence
How it was run: as §2

rice [2] = assay: Test B pre-/postemergence herbicide test; format: in vivo, Oryza sativa; settings: preemergence
From the text: Seeds selected from barnyardgrass (Echinochloa crus-galli (L.) Beauv.), Surinam grass (Urochloa decumbens (Staph) R. D. Webster, previously named Brachiaria decumbens Stapf), cocklebur (Xanthium strumarium L.), corn (Zea mays L.), large crabgrass (Digitaria sanguinalis (L.) Scop.), giant foxtail (Setaria faberi Herim.), lambsquarters (Chenopodium album L.), morningglory (Ipomoea coccinea L.), pigweed (Amaranthus retroflexus L.), rice (Oryza sativa L.) and velvetleaf (Abutilon theophrasti Medik.) were planted and treated preemergence with test chemicals formulated in a non-phytotoxic solvent mixture which included a surfactant.
At the same time, plants selected from these crop and weed species and also blackgrass (Alopecurus myosuroides Huds.), wheat (Triticum aestivum L.) and wild oat (Avena fatua L.) were treated with postemergence applications of test chemicals formulated in the same manner. Plants ranged in height from 2 to 18 cm (1- to 4-leaf stage) for postemergence treatments. Plant species in the flooded paddy test consisted of rice (Oryza sativa L.), small flower umbrella sedge (Cyperus difformis L.), ducksalad (Heteranthera limosa (Sw.) Willd.) and barnyardgrass (Echinochloa crus-galli (L.) Beauv.) grown to the 2-leaf stage for testing. Treated plants and controls were maintained in a greenhouse for 13 to 15 days, after which time all species were compared to controls and visually evaluated. Plant response ratings, summarized in Table B, are based on a scale of 0 to 100 where 0 is no effect and 100 is complete control. A dash (-) response means no test result.

velvetleaf = assay: Test B pre-/postemergence herbicide test; format: in vivo, Abutilon theophrasti; settings: for Velvetleaf plant response rating: postemergence
How it was run: as §2

blackgrass = assay: Test B postemergence herbicide test; format: in vivo, Alopecurus myosuroides; settings: scale 0 (no effect) to 100 (complete control); for Blackgrass plant response rating: postemergence, visual rating
How it was run: (§3)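 After treating 2-leaf paddy plants or 2–18 cm postemergence plants (1 to 4 leaves) with formulated chemical, researchers kept them in a greenhouse for 13–15 days. Effects were judged visually versus controls: 0 indicates none, 100 total control.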

wheat = assay: Test B postemergence herbicide test; format: in vivo, Triticum aestivum; parameters: key to Wheat plant response rating: 0 = no effect, 100 = complete control; settings: scale 0 (no effect) to 100 (complete control); for Wheat plant response rating: postemergence, visual rating
How it was run: (§4)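 Visual ratings, 0 (no effect) to 100 (complete control), made versus controls after 13–15 d greenhouse. Paddy plants treated at 2-leaf stage; postemergence plants at 1- to 4-leaf stage, 2–18 cm tall.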

wild oat = assay: Test B postemergence herbicide test; format: in vivo, Avena fatua; settings: scale 0 (no effect) to 100 (complete control); for Oat, Wild plant response rating: postemergence, visual rating
How it was run: as §4

rice [3] = assay: Test B flooded paddy test; format: in vivo, Oryza sativa; settings: 1000 g ai/ha, visual rating, scale 0 to 100 (0 no effect, 100 complete control), 13 to 15 days
How it was run: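 Each value is a visual 0–100 response rating taken against controls 13 to 15 days after treatment in the greenhouse. Plants received formulated chemical postemergence at the 1- to 4-leaf stage or, in flooded paddy, at the 2-leaf stage.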

[4] = system: small flower umbrella sedge; assay: Test B flooded paddy test; format: in vivo, Cyperus difformis; settings: 1000 g ai/ha, visual rating, scale 0 to 100 (0 no effect, 100 complete control), 13 to 15 days
How it was run: as §3

ducksalad = assay: Test B flooded paddy test; format: in vivo, Heteranthera limosa; settings: 1000 g ai/ha, visual rating, scale 0 to 100 (0 no effect, 100 complete control), 13 to 15 days
How it was run: as §3

barnyardgrass [5] = assay: Test B flooded paddy test; format: in vivo, Echinochloa crus-galli; settings: 1000 g ai/ha, visual rating, scale 0 to 100 (0 no effect, 100 complete control), 13 to 15 days
How it was run: as §3

[6] = Postemergence, 500 g ai/ha, visual rating after 13 to 15 days, scale 0 (no effect) to 100 (complete control)
[7] = Preemergence, 500 g ai/ha, scale 0 to 100
[8] = postemergence, 125 g ai/ha, visual rating, scale 0 (no effect) to 100 (complete control)
[9] = preemergence, 125 g ai/ha, 0 to 100 scale, 0 is no effect, 100 is complete control
[10] = 125 g ai/ha, visual rating, scale 0 (no effect) to 100 (complete control)
[11] = Postemergence, 500 g ai/ha, visual rating after 13 to 15 days
[12] = 125 g ai/ha, 0 = no effect, 100 = complete control, preemergence
[13] = 500 g ai/ha, visual rating, 0 = no effect, 100 = complete control, preemergence
[14] = postemergence, 500 g ai/ha, visual rating, scale 0 (no effect) to 100 (complete control)
[15] = 500 g ai/ha, visual rating, scale 0 (no effect) to 100 (complete control)

CCNC(=O)c1cc(NC(=O)c2cc(C(C)(C)C)nn2CC)ccc1C [Compound 68]
20: Plant response rating, Lambsquarters (lambsquarters; [9]) | Plant response rating, Morningglory (morningglory; [9]) | Plant response rating, Blackgrass (blackgrass; [11]) | Plant response rating, Oat, Wild (wild oat; [11])
0: Plant response rating, Barnyardgrass (barnyardgrass [1]; [6]) | Barnyardgrass plant response rating (barnyardgrass [1]; [8]) | Plant response rating, Barnyardgrass (barnyardgrass [1]; [9]) | Plant response rating, Surinam Grass (Surinam grass; [6]) | Surinam Grass plant response rating (Surinam grass; [10]) | Plant response rating, Surinam Grass (Surinam grass; [9]) | Cocklebur plant response rating (cocklebur; [7]) | Plant response rating, Cocklebur (cocklebur; [9]) | Plant response rating, Corn (corn; [6]) | Corn plant response rating (corn; [7]) | Corn plant response rating (corn; [8]) | Plant response rating, Corn (corn; [9]) | Plant response rating, Crabgrass, Large (large crabgrass; [6]) | Crabgrass, Large plant response rating (large crabgrass; [7]) | Crabgrass, Large plant response rating (large crabgrass; [8]) | Plant response rating, Crabgrass, Large (large crabgrass; [9]) | Plant response rating, Foxtail, Giant (giant foxtail; [6]) | Foxtail, Giant plant response rating (giant foxtail; [7]) | Foxtail, Giant plant response rating (giant foxtail; [8]) | Plant response rating, Foxtail, Giant (giant foxtail; [9]) | Lambsquarters plant response rating (lambsquarters; [10]) | Plant response rating, Morningglory (morningglory; [6]) | Morningglory plant response rating (morningglory; [10]) | Plant response rating, Rice (rice [2]; 125 g ai/ha, 0 to 100 scale, 0 is no effect, 100 is complete control) | Plant response rating, Velvetleaf (velvetleaf; [6]) | Velvetleaf plant response rating (velvetleaf; [10]) | Plant response rating, Velvetleaf (velvetleaf; [9]) | Plant response rating, Wheat (wheat; [11]) | Wheat plant response rating (wheat; 125 g ai/ha) | Rice plant response rating (rice [3]) | Sedge, Umbrella plant response rating [4] | Ducksalad plant response rating (ducksalad) | Barnyardgrass plant response rating (barnyardgrass [5])
30: Plant response rating, Pigweed (pigweed; [6])
10: Barnyardgrass plant response rating (barnyardgrass [1]; [7]) | Plant response rating, Cocklebur (cocklebur; [6]) | Cocklebur plant response rating (cocklebur; [8]) | Plant response rating, Lambsquarters (lambsquarters; [6]) | Pigweed plant response rating (pigweed; [10]) | Blackgrass plant response rating (blackgrass; 125 g ai/ha) | Oat, Wild plant response rating (wild oat; 125 g ai/ha)
70: Plant response rating, Pigweed (pigweed; [9])

CCc1nc(C(C)(C)C)sc1C(=O)Nc1cc(C(=O)N(CC)CC)ccc1F [Compound 230]
40: Pigweed plant response rating (0 to 100 scale) (pigweed; [12]) | Pigweed plant response rating (pigweed; [10]) | Oat, Wild plant response rating (wild oat; 500 g ai/ha)
50: Plant response rating, Barnyardgrass (barnyardgrass [1]; [13]) | Lambsquarters plant response rating (lambsquarters; [10]) | Barnyardgrass plant response rating (barnyardgrass [5])
0: Barnyardgrass plant response rating (barnyardgrass [1]; [8]) | Surinam Grass plant response rating (0 to 100 scale) (Surinam grass; [12]) | Cocklebur plant response rating (0 to 100 scale) (cocklebur; [12]) | Plant response rating, Cocklebur (cocklebur; [13]) | Cocklebur plant response rating (cocklebur; [8]) | Corn plant response rating (0 to 100 scale) (corn; [12]) | Rice plant response rating (0 to 100 scale) (rice [2]; 125 g ai/ha, 0 = no effect, 100 = complete control) | Plant response rating, Rice (rice [2]; 500 g ai/ha, visual rating, 0 = no effect, 100 = complete control)
60: Lambsquarters plant response rating (lambsquarters; [15]) | Pigweed plant response rating (pigweed; [15]) | Rice plant response rating (rice [3]) | Ducksalad plant response rating (ducksalad)
90: Plant response rating, Lambsquarters (lambsquarters; [13])
70: Plant response rating, Crabgrass, Large (large crabgrass; [13]) | Morningglory plant response rating (morningglory; [15])
20: Barnyardgrass plant response rating (barnyardgrass [1]; [14]) | Corn plant response rating (corn; [14]) | Crabgrass, Large plant response rating (0 to 100 scale) (large crabgrass; [12]) | Crabgrass, Large plant response rating (large crabgrass; [14]) | Foxtail, Giant plant response rating (giant foxtail; [14]) | Lambsquarters plant response rating (0 to 100 scale) (lambsquarters; [12]) | Morningglory plant response rating (morningglory; [10]) | Velvetleaf plant response rating (velvetleaf; [10]) | Wheat plant response rating (wheat; 500 g ai/ha) | Oat, Wild plant response rating (wild oat; 125 g ai/ha)
30: Plant response rating, Velvetleaf (velvetleaf; [13]) | Velvetleaf plant response rating (velvetleaf; [15]) | Blackgrass plant response rating (blackgrass; 125 g ai/ha) | Blackgrass plant response rating (blackgrass; 500 g ai/ha)
80: Plant response rating, Foxtail, Giant (giant foxtail; [13]) | Plant response rating, Pigweed (pigweed; [13])
10: Barnyardgrass plant response rating (0 to 100 scale) (barnyardgrass [1]; [12]) | Plant response rating, Surinam Grass (Surinam grass; [13]) | Surinam Grass plant response rating (Surinam grass; [10]) | Surinam Grass plant response rating (Surinam grass; [15]) | Cocklebur plant response rating (cocklebur; [14]) | Plant response rating, Corn (corn; [13]) | Corn plant response rating (corn; [8]) | Crabgrass, Large plant response rating (large crabgrass; [8]) | Foxtail, Giant plant response rating (0 to 100 scale) (giant foxtail; [12]) | Foxtail, Giant plant response rating (giant foxtail; [8]) | Morningglory plant response rating (0 to 100 scale) (morningglory; [12]) | Plant response rating, Morningglory (morningglory; [13]) | Velvetleaf plant response rating (0 to 100 scale) (velvetleaf; [12]) | Wheat plant response rating (wheat; 125 g ai/ha)
